Where two headings read alike, the source gives them in different places.
Experiments:
[1] = biological target: T1, aldose reductase (Sus scrofa, UniProt P80276); assay: Aldose reductase inhibitory activity (porcine crystalline lens enzyme); type: biochemical
T1 construct: porcine crystalline lens stored at -80° C. was homogenized in distilled water; from tissue; host or cells: porcine crystalline lens
Protocol: Aldose reductase enzyme standard was prepared from porcine crystalline lens by the method of Hayman et al. (cf., S. Hayman et al., Journal of Biological Chemistry, 240, 877-882, 1965). That is, porcine crystalline lens stored at -80° C. was homogenized in distilled water followed by centrifugation at 10,000 XG for 15 minutes. The supernatant was dissolved to make 40% ammonium sulfate solution. The supernatant centrifuged at 10,000 XG for further 10 minutes was dialyzed to 0.05 M sodium chloride solution overnight. The thus obtained dialysate was used as the enzyme standard.
The activity of aldose reductase was determined by the method of Hayman et al. supra. That is, 25 μl of the enzyme solution described above and […] of a drug solution in 1% DMSO having various concentrations were added to 200 μl of 40 mM phosphate buffer (pH 6.2) prepared to contain […] lithium sulfate and 0.1 MM NADPH (reduced nicotinamide adenine dinucleotide phosphate) in final concentrations and Containing 3 mM d1-glyceraldehyde as substrate, respectively. Thereafter, the mixture was reacted at 25° C. for 2 minutes and change in absorbance at 340 nm was determined using COBAS FARA II (Roche Co.).

[2] = tested on: sorbitol in lens withdrawn from rat; assay: Activity for preventing accumulation of sorbitol in lens withdrawn from rat; type: cell-based, SD rat; conditions: 50 mM glucose, 10^-6 M test drug, 4 hours, 1% DMSO = 100%, read-out: Sorbitol Content (%)
Protocol: 2) Activity for preventing accumulation of sorbitol in lens withdrawn from rat
The lens withdrawn from SD rats of 7 to 8 weeks age was incubated in 2.0 ml of Kreb's solution (pH 7. 4) containing 50 mM glucose and 10^-6 M test drug for 4 hours. The sorbitol content formed in the tissue was assayed by the enzyme method of Bergmeyer et al. [cf., H. Y. Bergmeyer et al., Methods of Enzymatic Analysis, 3, 1323-1330, 19741 using SDH (Sorbitol dehydrogenase) and AND (β-nicotinamide adenine dinucleotide). The sorbitol content was made 100% when 1% DMSO as a solvent was added in place of the drug and the activity of the drug was determined.

[3] = tested on: tissue sorbitol in streptozotocin-induced diabetic rats; assay: Inhibitory activity of accumulation of tissue sorbitol in streptozotocin-induced diabetic rats; type: in vivo, Sprague-Dawley rats; conditions: 30 mg/kg oral 4, 8 and 24 hours after streptozotocin, control = 100%, Tukey's test *p < 0.05, **p < 0.01; for Accumulation of Tissue Sorbitol (%), Nerve: sciatic nerve
Protocol: 4) Inhibitory activity of accumulation of tissue sorbitol in streptozatocini-induced diabetic rats.
Sprague-Dawley rats (male,6 weeks of age, one group composed of 5 to 6 rats), fasted overnight, were made diabetic by single intravenous injection of 60 mg/kg body weight of streptozotocin (SIGMA Co. ) , which had been freshly dissolved in normal saline solution.
The compound was orally administered in the form of 0.5% carboxymethylcellulose suspension in a dose of 30 mg/kg 4, 8 and 24 hours after the injection of streptozotocin. During the test, rats were free access to feed and water. Three hours after the final administration, the sorbitol contens in tissues (red blood cell, sciatic nerve, lens) Were determined by the enzyme method of Bergmeyer et al. [cf., H. Y. Bergmeyer et al., Methods of Enzymatic Analysis, 3, 1323-1330, 1974], using SDH (sorbitol dehydrogenase) and AND (β-nicotinamide adenine dinucleotide). The results are shown by percentage (%) when the value obtained with control group administered with 0.5% carboxymethylcellulose solution as a solvent instead of the compound was made 100%.

[4] = biological target: T2, human placenta aldehyde reductase (Homo sapiens, UniProt P14550); assay: Aldehyde reductase of human origin inhibitory activity (specificity); type: biochemical; conditions: 15 mM glucuronate, pH 7.0, read-out: 10 μM inhibition % HPALR
T2 construct: the fraction containing aldehyde reductase activity eluted by salt concentration gradient was dialyzed and used as aldehyde reductase enzyme standard; from tissue; host or cells: human placenta
T2 sequence (P14550 1-325): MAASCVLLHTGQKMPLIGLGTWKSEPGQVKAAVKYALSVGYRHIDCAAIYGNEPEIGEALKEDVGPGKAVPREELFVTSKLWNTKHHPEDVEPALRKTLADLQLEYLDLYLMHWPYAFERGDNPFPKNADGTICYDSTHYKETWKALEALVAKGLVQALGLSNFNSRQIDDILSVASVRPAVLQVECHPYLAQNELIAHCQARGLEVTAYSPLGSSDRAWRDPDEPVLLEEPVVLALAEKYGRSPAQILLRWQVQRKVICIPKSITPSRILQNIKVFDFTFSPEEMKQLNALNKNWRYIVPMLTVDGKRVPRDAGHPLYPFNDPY
Protocol: (§1) That is, human placenta stored at -80° C. was homogenized in distilled water followed by centrifugation at 10,000 XG for 15 minutes. […] The dialysate was applied to DEAE-cellulose column. The fraction containing aldose reductase activity eluted by salt concentration gradient was dialyzed and used as aldose reductase enzyme standard. Furthermore, after fractionation with ammonium sulfate solution, the dialysate was applied to Red Sepharose CL-6B, the fraction containing aldehyde reductase activity eluted by salt concentration gradient was dialyzed and used as aldehyde reductase enzyme standard.
That is, the activity was determined in a manner similar to the case of determining aldose reductase activity, using 200 mM phosphate buffer (pH 7.0) prepared to contain 0.1 mM NADPH in a final concentration and 15 mM glucuronate as substrate.

[5] = biological target: T3, human placenta aldose reductase (Homo sapiens, UniProt P15121); assay: Aldose reductase of human origin inhibitory activity; type: biochemical; conditions: for IC50: d1-glyceraldehyde 3 mM, pH 6.2, 25° C., read-out: IC50 HPAR (human placenta aldose reductase; head prints HPAP); for Ratio HPALR/HPAR: ratio of IC50 aldehyde reductase to aldose reductase, human placenta
T3 construct: The aldose reductase enzyme standard was prepared from human placenta; from tissue; host or cells: human placenta
Protocol: as §1
That is, 25 μl of the enzyme solution described above and 25 μl of a drug solution in 1% DMSO having various concentrations were added to 200 μl of 40 Mm phosphate buffer (pH 6.2) prepared to contain 0.4 M lithium sulfate and 0.1 mM NADPH (reduced nicotinamide adenine dinucleotide phosphate) in final concentrations and containing 3 mM d1-glyceraldehyde as substrate, respectively.

[6] = tested on: ICR strain mice; assay: Safety test, single oral administration in mice with 14 days observation; type: in vivo; conditions: 300 mg/kg oral, male ICR mice
Protocol: Next, safety of the compounds of the present invention was verified by the following test.
After normal ICR strain mice (male, 7 weeks age, 5 mice being into one group) was fasted for 18 hours, each compound (300 mg/kg) of Examples 1311, 132, 134, 156, 173, 179, 183 and 188 was orally administered in the form of 0.5% carboxymethylcellulose suspension. In the control group, 0.5% carboxymethylcellulose solution alone was orally administered. […] During the observation, mice were free access to feed and water.

[7] = d1-glyceraldehyde 3 mM, pH 6.2, 25° C., 2 minutes

SMILES | IC50 [1, 7] [nM] | activity at 1 µM [2] [%] | Accumulation of Tissue Sorbitol (%), Lens [3] [%] | Accumulation of Tissue Sorbitol (%), Red Blood Cell [3] [%] | Accumulation of Tissue Sorbitol (%), Nerve [3] [%] | inhibition at 10 µM [4] [%] | IC50 [5] [nM] | Ratio HPALR/HPAR [5] | IC50 ([1]; read-out: IC50 (50% inhibitory concentration, aldose reductase), d1-glyceraldehyde 3 mM, pH 6.2, 25° C., 2 minutes) [nM] | body weight [6] | mice dead [6]
CC(C)c1cccc2c1OC(C(C)C)C(=S)N2CC(=O)O (stereo not drawn) [Compound A, 3,4-dihydro-2,8-diisopropyl-3-thioxo-2H-1,4-benzoxazine-4-acetic acid, reference compound] | 21 | 56 | 87.3 | 53.7 | 54.9 | – | – | – | – | – | –
Cc1ccc2c(c1)N(Cc1nc3c(F)c(F)cc(F)c3s1)C(=O)C(CC(=O)O)S2 (stereo not drawn) [Example 165, 2-[4-(4,5,7-Trifluorobenzothiazol-2-yl)methyl-6-methyl-3,4-dihydro-3-oxo-2H-1,4-benzothiazin-2-yl]acetic acid] | – | – | – | – | – | 32.9 | 12 | > 833 | – | – | –
O=C(O)CC1Sc2c(F)cccc2N(Cc2nc3c(Cl)c(Cl)ccc3s2)C1=O (stereo not drawn) [Example 167, 2-[4-(4,5-Dichlorobenzothiazol-2-yl)methyl-8-fluoro-3,4-dihydro-3-oxo-2H-1,4-benzothiazin-2-yl]acetic acid] | – | – | – | – | – | 28.6 | 13 | > 769 | – | – | –
O=C(O)CC1Sc2ccccc2N(Cc2nc3c(F)c(F)cc(F)c3s2)C1=O (stereo not drawn) [Example 183, 2-[4-(4,5,7-Trifluorobenzothiazol-2-yl)methyl-3,4-dihydro-3-oxo-2H-1,4-benzothiazin-2-yl]acetic acid] | – | 29 | 39.1 | 25.8 | 3.1 | 19.3 | 10 | > 1000 | 9.5 | progressed as in the control group | none
O=C(O)CC1Sc2cc(F)ccc2N(Cc2nc3c(F)c(F)cc(F)c3s2)C1=O (stereo not drawn) [Example 188, 2-[4-(4,5,7-Trifluorobenzothiazol-2-yl)methyl-7-fluoro-3,4-dihydro-3-oxo-2H-1,4-benzothiazin-2-yl]acetic acid] | 9.7 | 38 | 32.5 | 15.7 | 0.0 | 19.1 | 14 | > 714 | – | progressed as in the control group | none
O=C(O)CC1Sc2ccccc2N(Cc2nc3c(F)c(F)ccc3s2)C1=O (stereo not drawn) [Example 189, 2-[4-(4,5-Difluorobenzothiazol-2-yl)methyl-3,4-dihydro-3-oxo-2H-1,4-benzothiazin-2-yl]acetic acid] | 9.9 | 37 | 30.7 | 16.6 | 1.1 | 18.5 | 9.3 | > 1075 | – | – | –

Source: patent US5252571A, “1,4-benzothiazine-2-acetic acid derivatives” (Sapporo Breweries Limited, priority 1990, dated 1993)
